In ChEMBL document CHEMBL1201862, “PubChem BioAssay data set” (2004):
Activity calls are given as the source filed them.

How the values were obtained:
[1] = Trypanosoma cruzi growth suppression in host cells – NIH3T3 host cells, beta-gal luminescence, confirmation (AID 2044); format: functional, cell-based;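 also: intracellular parasites grown in NIH/3T3 mouse fibroblasts as host cells; luminescent beta-galactosidase reporter signal from transgenic T. cruzi replicating inside host cells; inhibitors lower the luminescence signal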
[2] = NIH3T3 cell viability loss – ATP luminescence, mouse fibroblasts, counter-screen, dose response (AID 2010); format: functional, cell-based;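 also: cells exposed to compound for about 90 hours before reading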
[3] = cells
[4] = loss of viability in HepG2 cells – cell-based, CellTiter-Glo, cherry-picked, cytotoxicity control for Shn3 inhibitor project, dose response (AID 624134); format: functional
[5] = reduction of Shn3 3'UTR-driven luciferase in osteoblasts – cell-based, Clone20 osteoblasts, firefly luciferase, cherry-picked, dose response (AID 624132); format: functional;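 also: firefly luciferase luminescence from reporter carrying the Shn3 3'UTR in osteoblasts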
[6] = target: T1, High affinity choline transporter 1 (Homo sapiens, UniProt Q9GZV3); assay: human choline transporter blockers, potency – cell-based, 5-point CRC, membrane potential dye, dose response (AID 504840); format: functional
T1 sequence (Q9GZV3 whole entry): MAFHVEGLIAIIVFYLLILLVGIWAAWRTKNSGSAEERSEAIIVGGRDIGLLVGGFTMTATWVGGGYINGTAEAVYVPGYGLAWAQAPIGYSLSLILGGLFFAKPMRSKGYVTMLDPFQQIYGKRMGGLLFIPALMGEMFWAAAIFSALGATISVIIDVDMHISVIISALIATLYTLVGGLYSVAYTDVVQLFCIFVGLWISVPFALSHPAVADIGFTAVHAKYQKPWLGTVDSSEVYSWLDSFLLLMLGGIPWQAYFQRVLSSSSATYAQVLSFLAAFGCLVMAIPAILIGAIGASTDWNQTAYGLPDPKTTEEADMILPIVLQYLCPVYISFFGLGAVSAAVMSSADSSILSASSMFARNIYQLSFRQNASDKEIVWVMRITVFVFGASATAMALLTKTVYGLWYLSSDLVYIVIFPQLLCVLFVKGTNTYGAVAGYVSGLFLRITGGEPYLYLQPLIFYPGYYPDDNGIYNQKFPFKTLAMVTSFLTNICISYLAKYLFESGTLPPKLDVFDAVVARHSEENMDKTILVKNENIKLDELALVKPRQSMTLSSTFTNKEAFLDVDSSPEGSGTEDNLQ

[7] = target: T2, Ubiquitin-conjugating enzyme E2 N (Homo sapiens, UniProt P61088); format: functional
T2 sequence (P61088 whole entry): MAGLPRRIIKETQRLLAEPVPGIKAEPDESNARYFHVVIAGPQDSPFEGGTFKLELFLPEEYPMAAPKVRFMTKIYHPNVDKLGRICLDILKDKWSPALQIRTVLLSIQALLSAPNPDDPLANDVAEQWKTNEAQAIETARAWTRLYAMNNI

[8] = target: T3, Protein RecA (Mycobacterium tuberculosis, UniProt P9WHJ3); assay: Fluorescence Cell-Free Homogeneous Dose Retest to Identify Inhibitors of RecA-Intein Splicing Activity. [Related pubchem assays (depositor defined):AID2097, AID2223, AID489010, AID492950]; format: functional
T3 sequence (P9WHJ3 whole entry): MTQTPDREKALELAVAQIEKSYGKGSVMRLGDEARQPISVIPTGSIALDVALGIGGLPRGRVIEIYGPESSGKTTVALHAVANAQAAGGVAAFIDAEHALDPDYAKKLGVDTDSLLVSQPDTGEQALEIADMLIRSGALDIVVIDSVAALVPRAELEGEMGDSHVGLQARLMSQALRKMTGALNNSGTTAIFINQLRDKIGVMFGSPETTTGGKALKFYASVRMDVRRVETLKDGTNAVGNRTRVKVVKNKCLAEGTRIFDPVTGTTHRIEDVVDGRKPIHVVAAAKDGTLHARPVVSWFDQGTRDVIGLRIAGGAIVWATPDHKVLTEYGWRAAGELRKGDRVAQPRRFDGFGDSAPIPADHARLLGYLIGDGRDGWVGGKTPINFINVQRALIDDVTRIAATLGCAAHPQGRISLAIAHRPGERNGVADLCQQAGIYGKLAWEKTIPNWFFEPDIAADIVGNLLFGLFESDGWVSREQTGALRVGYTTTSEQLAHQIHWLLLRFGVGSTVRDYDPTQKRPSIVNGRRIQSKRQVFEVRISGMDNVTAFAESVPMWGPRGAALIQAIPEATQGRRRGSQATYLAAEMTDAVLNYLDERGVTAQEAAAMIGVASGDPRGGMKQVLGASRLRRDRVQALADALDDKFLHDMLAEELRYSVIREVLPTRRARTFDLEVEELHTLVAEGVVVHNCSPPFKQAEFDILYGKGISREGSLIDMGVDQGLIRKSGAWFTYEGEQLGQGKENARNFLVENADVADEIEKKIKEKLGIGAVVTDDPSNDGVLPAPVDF

[9] = system: Vero; assay: viability of Vero cells under compound – cytotoxicity control for flavivirus capping enzyme inhibitors (AID 588742); format: functional; conditions: Chlorocebus sabaeus
[10] = target: T2, Ubiquitin-conjugating enzyme E2 N; format: functional; remark: listed apart in the source
[11] = target: T4, Bcl-2-related protein A1 (Mus musculus, UniProt Q07440); format: functional;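 also: confirmatory dose–response counterscreen on Bfl-1, used to check hits from a UBC13 polyubiquitin inhibitor campaign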
T4 sequence (Q07440 whole entry): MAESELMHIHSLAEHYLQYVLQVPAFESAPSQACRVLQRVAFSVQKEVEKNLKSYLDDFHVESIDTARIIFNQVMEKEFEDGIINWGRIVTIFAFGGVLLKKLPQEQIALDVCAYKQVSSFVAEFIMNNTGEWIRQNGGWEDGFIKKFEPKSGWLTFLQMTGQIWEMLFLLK

[12] = target: Genome polyprotein (dengue virus type 2, UniProt P29990); assay: flavivirus cap methylation enzyme inhibition – biochemical, confirmation dose response, primary screen (AID 588689); format: functional
Genome polyprotein, sequence (P29990 2492-3391 limits assumed): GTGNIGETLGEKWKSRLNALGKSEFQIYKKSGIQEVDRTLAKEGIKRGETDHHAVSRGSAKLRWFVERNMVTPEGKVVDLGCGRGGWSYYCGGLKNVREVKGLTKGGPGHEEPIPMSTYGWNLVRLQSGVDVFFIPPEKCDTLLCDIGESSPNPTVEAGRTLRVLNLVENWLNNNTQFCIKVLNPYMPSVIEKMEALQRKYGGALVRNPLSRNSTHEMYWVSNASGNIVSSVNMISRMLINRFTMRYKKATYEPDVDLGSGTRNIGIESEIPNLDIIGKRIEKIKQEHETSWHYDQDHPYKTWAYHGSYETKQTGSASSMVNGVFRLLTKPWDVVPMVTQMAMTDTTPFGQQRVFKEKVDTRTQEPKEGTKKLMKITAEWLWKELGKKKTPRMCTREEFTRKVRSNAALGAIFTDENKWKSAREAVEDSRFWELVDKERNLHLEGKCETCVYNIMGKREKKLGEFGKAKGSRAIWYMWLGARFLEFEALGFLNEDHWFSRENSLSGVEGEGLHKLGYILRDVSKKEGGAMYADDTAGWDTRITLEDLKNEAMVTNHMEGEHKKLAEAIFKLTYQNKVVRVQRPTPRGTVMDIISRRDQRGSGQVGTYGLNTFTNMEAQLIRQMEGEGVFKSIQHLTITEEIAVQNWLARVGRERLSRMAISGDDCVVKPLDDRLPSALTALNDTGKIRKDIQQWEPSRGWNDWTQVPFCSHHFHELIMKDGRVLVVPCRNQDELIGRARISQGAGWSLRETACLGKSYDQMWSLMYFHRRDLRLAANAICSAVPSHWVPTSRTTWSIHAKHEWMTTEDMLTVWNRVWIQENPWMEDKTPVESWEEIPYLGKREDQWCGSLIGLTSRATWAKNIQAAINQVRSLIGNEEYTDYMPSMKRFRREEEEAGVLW

[13] = non-specific 3'UTR reporter inhibition in Clone20-Shn3RL – cell-based, Renilla luciferase, cherry-picked, counter-screen for Shn3 inhibitor project, dose response (AID 624133); format: functional
[14] = target: T5, Hepatocyte nuclear factor 4-alpha (Homo sapiens, UniProt P41235); format: functional, cell-based;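 also: biochemical luminescence-based dose-response counterscreen measuring inhibition of HNF4 dimerization, run alongside a screen for blockers of ABHD5–perilipin-5 interaction; split luciferase complementation of HNF4 fusion proteins in cell lysate measuring dimerization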
T5 sequence (P41235 whole entry): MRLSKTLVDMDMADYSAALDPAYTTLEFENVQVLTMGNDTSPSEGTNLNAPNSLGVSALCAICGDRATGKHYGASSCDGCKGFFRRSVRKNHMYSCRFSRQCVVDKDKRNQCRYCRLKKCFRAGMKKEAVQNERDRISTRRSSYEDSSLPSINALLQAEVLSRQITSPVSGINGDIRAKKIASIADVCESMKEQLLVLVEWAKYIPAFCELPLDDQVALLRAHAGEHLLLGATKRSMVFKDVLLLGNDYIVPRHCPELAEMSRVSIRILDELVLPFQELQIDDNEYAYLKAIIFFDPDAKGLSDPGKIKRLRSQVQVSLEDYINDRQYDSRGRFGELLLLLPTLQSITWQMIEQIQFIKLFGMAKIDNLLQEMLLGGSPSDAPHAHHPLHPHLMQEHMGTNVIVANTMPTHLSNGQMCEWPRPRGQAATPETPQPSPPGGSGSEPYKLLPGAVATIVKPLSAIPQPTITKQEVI

[15] = target: T1, High affinity choline transporter 1; assay: human choline transporter blockers, potency – cell-based, 10-point CRC, membrane potential dye, dose response (AID 588401); format: functional;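 also: membrane potential dye fluorescence of choline-evoked depolarization via CHT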
[16] = target: Potassium voltage-gated channel subfamily KQT member 2 (Rattus norvegicus, UniProt O88943, W236L); assay: potentiation of rat KCNQ2 current – cell-based, automated electrophysiology, mechanism study for KCNQ2 potentiator project, dose response (AID 2603); format: functional
Potassium voltage-gated channel subfamily KQT member 2, sequence (O88943 whole entry W236L): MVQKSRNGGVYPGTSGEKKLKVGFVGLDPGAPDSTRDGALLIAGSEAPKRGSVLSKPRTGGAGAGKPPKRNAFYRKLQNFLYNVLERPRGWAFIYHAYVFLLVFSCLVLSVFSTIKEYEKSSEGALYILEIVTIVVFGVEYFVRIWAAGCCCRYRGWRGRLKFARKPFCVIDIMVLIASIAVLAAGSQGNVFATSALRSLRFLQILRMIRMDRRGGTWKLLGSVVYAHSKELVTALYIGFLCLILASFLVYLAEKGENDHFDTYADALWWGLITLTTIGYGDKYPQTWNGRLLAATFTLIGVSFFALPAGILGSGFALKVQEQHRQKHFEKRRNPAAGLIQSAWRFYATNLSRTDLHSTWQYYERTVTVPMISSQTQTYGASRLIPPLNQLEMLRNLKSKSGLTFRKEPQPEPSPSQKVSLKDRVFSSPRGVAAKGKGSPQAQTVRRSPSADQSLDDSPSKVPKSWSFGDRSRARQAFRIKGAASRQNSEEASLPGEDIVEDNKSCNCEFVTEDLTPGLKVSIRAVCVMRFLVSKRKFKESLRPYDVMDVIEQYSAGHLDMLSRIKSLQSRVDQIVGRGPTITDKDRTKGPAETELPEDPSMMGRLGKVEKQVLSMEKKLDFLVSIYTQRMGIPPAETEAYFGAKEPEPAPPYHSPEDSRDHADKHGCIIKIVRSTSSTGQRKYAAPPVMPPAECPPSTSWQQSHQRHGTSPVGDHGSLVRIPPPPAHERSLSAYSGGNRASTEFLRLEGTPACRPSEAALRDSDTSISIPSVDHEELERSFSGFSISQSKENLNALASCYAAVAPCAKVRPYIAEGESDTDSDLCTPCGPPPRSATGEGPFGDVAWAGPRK

[17] = target: ATP-binding cassette sub-family B member 6 (Homo sapiens, UniProt Q9NP58); assay: ABCB6 transporter inhibitors, porphyrin accumulation, dose response, flow cytometry, K562-ABCB6 cells, cherry pick 02 (AID 624487); format: functional; conditions: read-out: EC50_MICROM
ATP-binding cassette sub-family B member 6, sequence (Q9NP58 whole entry): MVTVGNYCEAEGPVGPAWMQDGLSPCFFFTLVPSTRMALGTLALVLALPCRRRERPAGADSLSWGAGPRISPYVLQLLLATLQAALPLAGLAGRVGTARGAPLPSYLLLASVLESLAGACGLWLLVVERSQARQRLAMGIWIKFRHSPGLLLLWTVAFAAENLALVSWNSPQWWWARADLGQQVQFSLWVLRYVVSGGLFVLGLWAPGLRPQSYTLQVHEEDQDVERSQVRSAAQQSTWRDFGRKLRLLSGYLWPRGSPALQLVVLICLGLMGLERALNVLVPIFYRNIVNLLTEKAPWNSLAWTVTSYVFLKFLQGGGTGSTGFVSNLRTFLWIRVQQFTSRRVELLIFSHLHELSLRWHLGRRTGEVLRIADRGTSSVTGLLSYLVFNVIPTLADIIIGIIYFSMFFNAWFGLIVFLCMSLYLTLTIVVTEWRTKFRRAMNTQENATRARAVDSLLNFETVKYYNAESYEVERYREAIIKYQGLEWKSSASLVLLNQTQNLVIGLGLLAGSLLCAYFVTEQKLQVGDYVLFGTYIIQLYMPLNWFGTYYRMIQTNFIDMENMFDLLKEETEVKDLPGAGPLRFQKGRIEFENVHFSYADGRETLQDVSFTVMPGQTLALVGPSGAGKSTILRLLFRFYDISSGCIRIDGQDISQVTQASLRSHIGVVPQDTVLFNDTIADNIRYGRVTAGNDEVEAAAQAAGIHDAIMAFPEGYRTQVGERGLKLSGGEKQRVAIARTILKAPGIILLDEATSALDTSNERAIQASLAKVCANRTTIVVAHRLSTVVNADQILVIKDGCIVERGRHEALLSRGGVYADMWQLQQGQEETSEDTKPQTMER

[18] = system: INS1; assay: INS-1E survival protection against cytokine death – cell-based, luminescence, retest, dose response (AID 449756); format: functional; conditions: Rattus norvegicus;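 also: cell death triggered by IL-1 beta plus TNF-alpha plus IFN-gamma mixture; protective hits raise ATP signal compared with cytokine alone wells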
[19] = Luminescence Cell-Based Dose Retest to Confirm Inhibitors of Cancer Stem Cells. [Related pubchem assays (depositor defined):AID2717, AID2721]; format: functional; conditions: Homo sapiens
[20] = target: T6, Mannose-6-phosphate isomerase (Homo sapiens, UniProt P34949); assay: MPI enzyme activity inhibition – biochemical, fluorescence intensity, coupled assay, primary screen (AID 1209)
T6 sequence (P34949 whole entry): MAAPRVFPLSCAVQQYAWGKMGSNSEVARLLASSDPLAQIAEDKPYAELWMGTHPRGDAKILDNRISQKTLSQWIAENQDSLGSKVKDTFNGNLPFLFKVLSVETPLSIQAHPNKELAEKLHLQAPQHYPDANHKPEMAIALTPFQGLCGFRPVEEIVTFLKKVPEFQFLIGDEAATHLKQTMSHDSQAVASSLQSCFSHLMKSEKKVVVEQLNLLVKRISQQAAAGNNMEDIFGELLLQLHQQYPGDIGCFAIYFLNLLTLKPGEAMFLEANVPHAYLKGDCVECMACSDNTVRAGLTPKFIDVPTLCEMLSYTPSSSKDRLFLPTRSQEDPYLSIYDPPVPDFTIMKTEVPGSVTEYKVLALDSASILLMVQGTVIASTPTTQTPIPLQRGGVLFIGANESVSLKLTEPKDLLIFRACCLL

[21] = HIV-1 Vif–A3G interaction blockers – biochemical, TR-FRET, GST-Vif 1-94, biotin-A3G peptide, dose response retest, primary screen (AID 1117319); format: functional;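 also: TR-FRET signal of purified GST-Vif binding a biotinylated A3G peptide; inhibitors lower the FRET signal by blocking Vif and A3G binding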
[22] = target: T7, Estrogen receptor beta (Homo sapiens, UniProt Q92731);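 also: recombinant ER-beta bound to coactivator SRC1 peptide in presence of estradiol agonist; inhibitors block coactivator peptide binding and lower the FRET signal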
T7 sequence (Q92731 whole entry, the tested form may be a part): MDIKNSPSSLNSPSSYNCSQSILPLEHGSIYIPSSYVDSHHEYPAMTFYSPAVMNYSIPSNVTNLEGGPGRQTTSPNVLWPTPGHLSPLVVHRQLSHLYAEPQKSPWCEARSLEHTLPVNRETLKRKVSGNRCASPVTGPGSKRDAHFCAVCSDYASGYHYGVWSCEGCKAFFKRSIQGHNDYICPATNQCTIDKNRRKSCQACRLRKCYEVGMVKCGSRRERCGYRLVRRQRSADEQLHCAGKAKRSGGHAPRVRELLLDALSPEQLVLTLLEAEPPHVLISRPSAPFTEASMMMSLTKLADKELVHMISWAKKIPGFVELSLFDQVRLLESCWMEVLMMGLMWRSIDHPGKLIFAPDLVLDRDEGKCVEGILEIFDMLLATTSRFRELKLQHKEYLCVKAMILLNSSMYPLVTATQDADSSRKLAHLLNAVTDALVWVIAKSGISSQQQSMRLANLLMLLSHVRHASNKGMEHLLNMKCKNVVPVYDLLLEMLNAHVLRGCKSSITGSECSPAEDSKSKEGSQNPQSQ

[23] = target: T8, Carboxy-terminal domain RNA polymerase II polypeptide A small phosphatase 1 (Homo sapiens, UniProt Q9GZU7); assay: CTDSP1 inhibitors, concentration-response, biochemical, absorbance readout, ultra-high-throughput screen actives (AID 540297); format: functional
T8 sequence (Q9GZU7 whole entry): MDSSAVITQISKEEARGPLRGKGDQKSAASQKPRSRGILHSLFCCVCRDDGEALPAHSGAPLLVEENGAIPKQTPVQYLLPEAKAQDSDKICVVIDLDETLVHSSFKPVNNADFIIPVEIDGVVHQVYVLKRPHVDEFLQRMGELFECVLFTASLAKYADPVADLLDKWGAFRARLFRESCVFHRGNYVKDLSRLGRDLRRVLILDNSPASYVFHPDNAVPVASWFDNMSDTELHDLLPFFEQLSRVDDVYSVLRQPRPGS

[24] = target: T7, Estrogen receptor beta; assay: blockers of SRC-3 recruitment to ERβ – biochemical, ELISA, streptavidin-HRP readout, orthogonal assay, confirmation (AID 1060)
[25] = target: Aryl hydrocarbon receptor (Homo sapiens, UniProt P35869); assay: Luminescence-based cell-based high throughput dose response assay for activators of the Aryl Hydrocarbon Receptor (AHR). [Related pubchem assays: 2796 (Primary screen (AHR activators in singlicate)), 2845 (Confirmation screen (AHR activators in triplicate)), 434939 (Counterscreen (PXR activators in triplicate)), 2804 (Summary (AHR activators))]; format: ADME
[26] = target: Cytochrome P450 3A4 (Homo sapiens, UniProt P08684); conditions: Potency;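 also: confirmatory qHTS run detecting inhibitors and substrates of CYP3A4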
Cytochrome P450 3A4, sequence (P08684 whole entry): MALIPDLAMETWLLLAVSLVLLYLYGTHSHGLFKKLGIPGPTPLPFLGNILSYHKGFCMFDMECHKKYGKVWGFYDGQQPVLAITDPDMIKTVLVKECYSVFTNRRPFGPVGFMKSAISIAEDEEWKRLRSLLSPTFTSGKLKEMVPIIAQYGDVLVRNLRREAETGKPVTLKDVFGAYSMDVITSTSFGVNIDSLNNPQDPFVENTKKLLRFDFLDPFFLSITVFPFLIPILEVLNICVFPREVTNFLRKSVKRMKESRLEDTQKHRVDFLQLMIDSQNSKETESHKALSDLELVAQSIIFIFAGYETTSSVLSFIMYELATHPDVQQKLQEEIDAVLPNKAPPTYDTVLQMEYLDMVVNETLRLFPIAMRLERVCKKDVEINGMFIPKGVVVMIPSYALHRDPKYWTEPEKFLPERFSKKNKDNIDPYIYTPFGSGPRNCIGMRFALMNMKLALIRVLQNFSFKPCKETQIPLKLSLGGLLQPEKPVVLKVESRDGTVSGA

[27] = target: Cytochrome P450 2C19 (Homo sapiens, UniProt P33261); assay: qHTS Assay for Inhibitors and Substrates of Cytochrome P450 2C19. [Related pubchem assays: 410 ]; format: ADME; conditions: read-out: Potency
[28] = target: 5-hydroxytryptamine receptor 1A (Homo sapiens, UniProt P08908); format: functional
5-hydroxytryptamine receptor 1A, sequence (P08908 whole entry): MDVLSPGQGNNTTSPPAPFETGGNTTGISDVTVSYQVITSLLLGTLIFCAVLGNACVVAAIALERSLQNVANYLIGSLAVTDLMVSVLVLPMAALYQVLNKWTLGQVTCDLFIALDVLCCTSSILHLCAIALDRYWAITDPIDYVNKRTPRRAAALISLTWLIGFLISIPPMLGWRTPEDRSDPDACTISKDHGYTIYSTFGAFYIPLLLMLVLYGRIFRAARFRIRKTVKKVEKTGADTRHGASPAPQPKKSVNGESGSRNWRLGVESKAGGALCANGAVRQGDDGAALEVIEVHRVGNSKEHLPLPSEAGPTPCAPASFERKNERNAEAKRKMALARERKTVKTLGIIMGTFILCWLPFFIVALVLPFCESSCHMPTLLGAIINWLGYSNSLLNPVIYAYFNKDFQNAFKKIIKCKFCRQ

[29] = target: NADPH oxidase 1 (Homo sapiens, UniProt Q9Y5S8); format: functional, cell-based;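 also: Cell-based assay with luminescence read-out, IC50 derived from inhibitor dose-response curves; intracellular ROS from endogenous NOX1 in intact HT29 colon cancer cells; potency of inhibitors that lower the ROS luminescence signal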
NADPH oxidase 1, sequence (Q9Y5S8 whole entry): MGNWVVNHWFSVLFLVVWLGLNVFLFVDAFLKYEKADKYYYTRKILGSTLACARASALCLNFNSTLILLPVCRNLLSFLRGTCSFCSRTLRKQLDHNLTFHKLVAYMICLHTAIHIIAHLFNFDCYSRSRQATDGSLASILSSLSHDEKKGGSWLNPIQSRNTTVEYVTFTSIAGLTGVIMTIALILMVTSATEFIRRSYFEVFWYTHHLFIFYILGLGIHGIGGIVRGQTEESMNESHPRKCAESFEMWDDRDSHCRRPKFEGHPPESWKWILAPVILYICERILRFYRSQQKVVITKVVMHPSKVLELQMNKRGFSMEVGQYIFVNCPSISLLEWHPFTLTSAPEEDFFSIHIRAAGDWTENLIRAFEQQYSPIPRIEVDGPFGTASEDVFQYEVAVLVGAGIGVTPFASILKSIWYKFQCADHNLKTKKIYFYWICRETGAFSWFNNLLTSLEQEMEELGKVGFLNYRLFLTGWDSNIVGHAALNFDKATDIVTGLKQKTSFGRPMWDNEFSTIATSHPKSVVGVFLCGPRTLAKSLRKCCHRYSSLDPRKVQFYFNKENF

[30] = M. tuberculosis H37Rv growth inhibitors, H37Rv strain (AID 1626); format: functional

## O=C(CCC1CCCN(Cc2ccc3c(c2)OCCO3)C1)NCc1ccc(F)c(F)c1 (stereo not drawn)
[1]
  EC50: < 0.1 µM (active)
[2]
  EC50: > 60 µM (not active)
[3]
  EC50: 0.033 µM (active)

## CCCc1nnc(NC(=O)c2nc(S(=O)(=O)Cc3cccc(C)c3)ncc2Cl)s1
[4]
  AC50: > 70 µM (inactive)
[5]
  AC50: 2.55 µM (active)
[6]
  IC50: 3.9 µM (active)
[7]
  IC50: > 20 µM (inactive)
[8]
  EC50: > 380 µM (inactive)
[9]
  CC50: > 40 µM (active)
[10]
  IC50: 12.3 µM (active)
[11]
  IC50: > 20 µM (inactive)
[12]
  IC50: > 100 µM (active)
[13]
  AC50: 10 µM (active)
[14]
  IC50: 5.71 µM (active)
[15]
  IC50: 3.16 µM (active)
[16]
  EC50: 2.89 µM (active)
[17]
  EC50: 60.6 µM (active)

## CC1=[N+](C)c2ccc3ccccc3c2C1(C)C
[1]
  EC50: 2.83 µM (active)
[18]
  AC50: 6.8 µM (active)
[19]
  AC50: 27.4 µM (active)
[20]
  IC50: > 50 µM (not active)
[2]
  EC50: > 60 µM (not active)

## CCCCN(CCCC)S(=O)(=O)c1ccc(NC(=O)Cc2cccs2)cc1
[21]
  IC50: > 100 µM (active)
[22]
  IC50: 18.8 µM (active)
[23]
  IC50: 7.14 µM (active)
[24]
  IC50: 1.05 µM (not active)

## Cc1ccc[n+](CC(=O)c2ccc(Br)cc2)c1C
[6]
  IC50: 13.8 µM (active)
[25]
  EC50: 6.77 µM (active)

## O=c1cc(-c2ccccc2O)oc2c1ccc1ccccc12
[26]
  AC50: 15.8 µM (inconclusive)
[27]
  AC50: 0.251 µM (inconclusive)

## CCN1CC=C(c2c[nH]c3ccccc23)CC1
[28]
  EC50: > 50 µM (not active)

## O=[N+]([O-])c1ccccc1-c1nc(-c2ccccc2)c(-c2ccccc2)[nH]1
[29]
  IC50: > 17 µM (not active)

## O=C(O)/C=C/C(=O)Nc1ccc(-n2nccc2C(F)(F)F)cc1
[30]
  IC50: > 100 µM (active)
